Assay results from article PMC12006171, “Marsupial cathelicidins: characterization, antimicrobial activity and evolution in this unique mammalian lineage” (Frontiers in Immunology, 2025).
In brackets after ≈: the same amount, converted by molar mass. Where two headings read alike, the source gives them in different places. Where a SMILES comes first, the peptide text is derived from it.

Tests used:
[1] = test system: three fungi (Candida krusei, Candida parapsilosis, Candida albicans); design: method as in 4 sources, ref Peel et al 2016 ||| ref Peel et al 2021 ||| ref Wang et al 2011 ||| ref Peel et al 2017; details: cited from earlier work
[2] = test system: six bacteria (S. aureus, E. coli, P. aeruginosa; ATCC and clinical isolate); design: method as in 4 sources, ref Peel et al 2016 ||| ref Peel et al 2021 ||| ref Wang et al 2011 ||| ref Peel et al 2017; details: cited from earlier work
[3] = test system: Escherichia coli clinical isolate - animal; experiment: microbe, parasite or virus in culture; assay type: cell-based
Experimental: (§1) Antimicrobial testing of 78 cathelicidin MPs was performed in two phases as outlined in Figure 1 . In phase I, 40 peptides (27 extant and 13 ancestral) were selected for testing based on rank (outlined above) and similarity to published marsupial cathelicidins with known antimicrobial activity ([33], [41]–[43]). These peptides were tested against nine bacteria (Staphylococcus aureus ATCC 29213 and clinical isolate, Escherichia coli ATCC 25922 and clinical isolate, Pseudomonas aeruginosa ATCC 27853 and clinical isolate, Streptococcus agalactiae ATCC 12386 and clinical isolate, Streptococcus pneumoniae ATCC 49619) and three fungi (Candida krusei ATCC 6258, Candida parapsilosis ATCC 22019, and Candida albicans clinical isolate). Details regarding these strains are available in Supplementary Table 4 . The antimicrobial activity of cathelicidins was determined as the minimum inhibitory concentration (MIC), which was the lowest concentration of cathelicidin that prevented visible bacterial or fungal growth, relative to the negative control. […] Minimum bactericidal concentration (MBC) and/or minimum fungicidal concentration (MFC) was conducted to determine microbicidal versus static action. Activity against S. aureus ATCC, E. coli ATCC, and Pseudomonas aeruginosa ATCC 27853 was examined in the presence of divalent cations to determine the impact of inhibitors.
(§2) In phase II, the remaining 38 peptides (37 extant and one ancestral) were tested against six bacteria (S. aureus ATCC and clinical isolate, E. coli ATCC and clinical isolate, and P. aeruginosa ATCC and clinical isolate). […] No further testing on phase II peptides was performed. Detailed methods for all assays are provided in subsequent sections.
(§3) Antimicrobial activity was determined using a broth microdilution susceptibility assay in 96 well polypropylene plates according to Clinical Laboratory Standards Institute guidelines M07-A and M26A as described previously ([33], [42], [43]). The bacterial and fungal isolates from humans and animals used in this study are outlined in Supplementary Table 4 . Only yeasts were included in the panel of fungi as they have been used in the susceptibility testing of eutherian ([3], [81]–[83]) and other marsupial cathelicidins previously ([33], [42], [43]). Cathelicidin mature peptides were solubilized in DMSO and serially diluted in duplicate from 128-0.25μg/mL in a final volume of 100µL. For bacteria, cathelicidins were diluted in Mueller Hinton Broth (MHB) with or without 10% lysed horse blood, and with (MH II B) or without (MHB) calcium and magnesium cations. For fungi, cathelicidins were diluted in Roswell Park Memorial Institute medium (RPMI)-1640 MOPS. Ampicillin or tetracycline were included as a positive control for Gram-positive and -negative bacteria respectively, while amphotericin B was used for fungi. A media-only negative control and growth control (no cathelicidin) were also included on each plate. Bacteria were sub-cultured on Muller Hinton agar (MHA) or sheep blood agar (BA), and fungi on Sabouraud dextrose agar (SAB), 20–24 hours prior to the test. Colonies were suspended in saline, the concentration adjusted to a 0.5 McFarland standard, and then diluted in media to a concentration of 1.0 x 10^6 cells/mL. Then, 100μL was added to each well of the cathelicidin dilution plate, giving a final inoculum density of 5 x 10^5 CFU/mL and cathelicidin concentration of 64-0.125μg/mL. Colony counts were performed on MHA/BA/SAB to confirm inoculum density. All plates were incubated at 35°C for 20–24 hours, depending on the strain.
(§4) Colonies were counted and compared to the colony count of the starting inoculum.

[4] = test system: Pseudomonas aeruginosa clinical isolate - animal; experiment: microbe, parasite or virus in culture; assay type: cell-based; details: read-out: MIC P. aeruginosa
Experimental: as §1, §2, §3, §4

[5] = test system: Escherichia coli ATCC 25922; experiment: microbe, parasite or virus in culture; assay type: cell-based
Experimental: as §1, §2, §3, §4

[6] = test system: Staphylococcus aureus clinical isolate - animal; experiment: microbe, parasite or virus in culture; assay type: cell-based; details: for MIC: read-out: MIC S. aureus
Experimental: as §1, §2, §3, §4

[7] = test system: Pseudomonas aeruginosa ATCC 27853; experiment: microbe, parasite or virus in culture; assay type: cell-based; details: read-out: MIC P. aeruginosa ATCC
Experimental: as §1, §2, §3, §4

[8] = test system: Staphylococcus aureus ATCC 29213; experiment: microbe, parasite or virus in culture; assay type: cell-based; details: for MIC: read-out: MIC S. aureus ATCC
Experimental: as §1, §2, §3, §4

[9] = mature peptide, Y/N summary from earlier study, ref Wang et al 2011
[10] = mature peptide, Y/N summary from earlier study, ref Peel et al 2016
[11] = mature peptide (MP), Y/N summary, ref Peel et al 2017
[12] = clinical isolate, µM equivalent of Table 3

## KRGLWESLKRKATKLGDDIRNTLRNFKIKFPVPRQG [MaeuCath2*]
[1]; [9]
  Antifungal (MIC <64ug/mL): Y (Wang et al 2011) (Antifungal (MIC <64ug/mL))
[2]; [9]
  Antibacterial (MIC <64ug/mL): Y (Wang et al 2011) (Antibacterial (MIC <64ug/mL))

## GIKHILFMAKTKLPRATCTAEIKENCDRKK [SahaCath1]
[1]; [10]
  Antifungal (MIC <64ug/mL): N (Peel et al 2016) (Antifungal (MIC <64ug/mL))
[2]; [10]
  Antibacterial (MIC <64ug/mL): N (Peel et al 2016) (Antibacterial (MIC <64ug/mL))

## PKQKNGSKNRRFRIGGYTMISMKQPRVQKAPYMEAL [ModoCath9]
[1]; [11]
  Antifungal (MIC <64ug/mL): N (Peel et al 2017) (Antifungal (MIC <64ug/mL))
[2]; [11]
  Antibacterial (MIC <64ug/mL): N (Peel et al 2017) (Antibacterial (MIC <64ug/mL))

## LYRRRKYPTSYYLLLGGKGNNRGYKPHIIYV [ModoCath11]
[1]; [11]
  Antifungal (MIC <64ug/mL): N (Peel et al 2017) (Antifungal (MIC <64ug/mL))
[2]; [11]
  Antibacterial (MIC <64ug/mL): N (Peel et al 2017) (Antibacterial (MIC <64ug/mL))

## KRMGIFHLFWAGLRKLGNLIKNKIQQGIENFLG [SahaCath3]
[1]; [10]
  Antifungal (MIC <64ug/mL): Y (Peel et al 2016) (Antifungal (MIC <64ug/mL))
[2]; [10]
  Antibacterial (MIC <64ug/mL): N (Peel et al 2016) (Antibacterial (MIC <64ug/mL))

## KRGFGKKLRKRLKKFRNSIKKRLKNFNVVIPIPLPG [MaeuCath1]
[1]; [9]
  Antifungal (MIC <64ug/mL): Y (Wang et al 2011) (Antifungal (MIC <64ug/mL))
[2]; [9]
  Antibacterial (MIC <64ug/mL): Y (Wang et al 2011) (Antibacterial (MIC <64ug/mL))

## RTFGNLIHQKYRKLLEAYRKLRDIFSG [ModoCath5]
[1]; [11]
  Antifungal (MIC <64ug/mL): N (Peel et al 2017) (Antifungal (MIC <64ug/mL))
[2]; [11]
  Antibacterial (MIC <64ug/mL): N (Peel et al 2017) (Antibacterial (MIC <64ug/mL))

## KDILKNNNIIILPGSNEK [OranCath1]
[2]; mature peptide (MP), Y/N summary, ref Wang et al 2011
  Antibacterial (MIC <64ug/mL): Y (Wang et al 2011) (Antibacterial (MIC <64ug/mL))

## CC[C@H](C)[C@H](NC(=O)[C@H](CC(C)C)NC(=O)[C@H](CC(N)=O)NC(=O)[C@@H](NC(=O)[C@H](Cc1ccccc1)NC(=O)CNC(=O)[C@@H](N)Cc1c[nH]c2ccccc12)[C@@H](C)O)C(=O)N[C@@H](Cc1ccc(O)cc1)C(=O)N[C@@H](CCC(N)=O)C(=O)N[C@@H](CCCCN)C(=O)N[C@@H](Cc1ccc(O)cc1)C(=O)N[C@@H](CCCCN)C(=O)N[C@@H](CC(C)C)C(=O)N[C@@H](CC(C)C)C(=O)N[C@@H](CCCNC(=N)N)C(=O)N[C@@H](CC(N)=O)C(=O)N[C@H](C(=O)N[C@@H](Cc1ccccc1)C(=O)N[C@@H](CCCNC(=N)N)C(=O)N[C@@H](CCCCN)C(=O)N[C@@H](CC(C)C)C(=O)N[C@@H](CCCNC(=N)N)C(=O)N[C@@H](CC(N)=O)C(=O)N[C@H](C(=O)N[C@@H](CO)C(=O)N[C@@H](CO)C(=O)NCC(=O)NCC(=O)N[C@@H](CCCNC(=N)N)C(=O)N[C@@H](CC(=O)O)C(=O)N[C@@H](CC(N)=O)C(=O)N[C@@H](CCCCN)C(=O)N[C@@H](CCCCN)C(=O)O)[C@@H](C)O)C(C)C [BepeCath4] (H-WGFTNLIYQKYKLLRNVFRKLRNTSSGGRDNKK-OH)
[3]; clinical isolate - animal
  MBC E. coli: 7.9 µM (≈ 31.6 µg/mL)
  MIC: 3.9 µM (≈ 15.6 µg/mL)
[4]; clinical isolate - animal
  MIC: >15.9 µM
[5]; ATCC 25922
  MBC E. coli ATCC: 3.9 µM (≈ 15.6 µg/mL)
  MIC E. coli ATCC: 3.9 µM (≈ 15.6 µg/mL)
[6]; clinical isolate - animal
  MBC S. aureus: 7.9 µM (≈ 31.6 µg/mL)
  MIC S. aureus: 7.9 µM (≈ 31.6 µg/mL)
[7]; ATCC 27853
  MIC: >15.9 µM
[8]; ATCC 29213
  MBC S. aureus ATCC: 15.9 µM (≈ 63.6 µg/mL)
  MIC: 7.9 µM (≈ 31.6 µg/mL)

## CC[C@H](C)[C@H](NC(=O)[C@H](CO)NC(=O)[C@H](CCCNC(=N)N)NC(=O)CNC(=O)[C@@H]1CCCN1C(=O)[C@H](CCCNC(=N)N)NC(=O)[C@@H]1CCCN1C(=O)[C@H](CCCNC(=N)N)NC(=O)[C@@H]1CCCN1C(=O)[C@H](CCCNC(=N)N)NC(=O)[C@@H]1CCCN1C(=O)[C@H](Cc1ccccc1)NC(=O)[C@H](CC(N)=O)NC(=O)[C@@H]1CCCN1C(=O)[C@H](CCCNC(=N)N)NC(=O)[C@@H]1CCCN1C(=O)[C@H](Cc1ccccc1)NC(=O)[C@H](CCCNC(=N)N)NC(=O)[C@@H]1CCCN1C(=O)[C@H](CCCNC(=N)N)NC(=O)[C@@H]1CCCN1C(=O)[C@H](CC(C)C)NC(=O)[C@H](Cc1ccc(O)cc1)NC(=O)[C@@H]1CCCN1C(=O)[C@H](CCCNC(=N)N)NC(=O)[C@H](CCCNC(=N)N)NC(=O)[C@@H](NC(=O)[C@H](CCCNC(=N)N)NC(=O)[C@H](CCCNC(=N)N)NC(=O)[C@H](C)NC(=O)[C@H](C)NC(=O)[C@H](CC(C)C)NC(=O)[C@H](CC(C)C)NC(=O)CN)[C@@H](C)CC)C(=O)O [SmcrCath12] (H-GLLAARRIRRPYLPRPRFPRPNFPRPRPRPGRSI-OH)
[3]; clinical isolate, value in brackets, µM equivalent of Table 3
  MBC E. coli: 3.9 µM
[3]; [12]
  MIC E. coli: 3.9 µM
[4]; [12]
  MIC: >15.6 µM
[5]; value in brackets, µM equivalent of Table 3
  MBC E. coli ATCC: 1.9 µM
[5]; µM equivalent of Table 3
  MIC E. coli ATCC: 1.9 µM
[6]; [12]
  MIC: >15.6 µM
[7]; µM equivalent of Table 3
  MIC: >15.6 µM
[8]; µM equivalent of Table 3
  MIC: >15.6 µM

## CC[C@H](C)[C@H](NC(=O)[C@H](CO)NC(=O)[C@H](CCCNC(=N)N)NC(=O)[C@H](CCCNC(=N)N)NC(=O)[C@@H]1CCCN1C(=O)[C@H](CCCNC(=N)N)NC(=O)[C@@H]1CCCN1C(=O)[C@H](Cc1ccccc1)NC(=O)[C@@H]1CCCN1C(=O)[C@H](Cc1ccccc1)NC(=O)CNC(=O)[C@@H]1CCCN1C(=O)[C@H](CCCNC(=N)N)NC(=O)[C@@H]1CCCN1C(=O)[C@H](Cc1ccccc1)NC(=O)[C@@H]1CCCN1C(=O)[C@H](Cc1ccccc1)NC(=O)CNC(=O)[C@@H]1CCCN1C(=O)[C@H](CCCNC(=N)N)NC(=O)[C@@H]1CCCN1C(=O)[C@H](Cc1ccccc1)NC(=O)[C@H](CO)NC(=O)[C@@H]1CCCN1C(=O)[C@H](CCCNC(=N)N)NC(=O)[C@@H]1CCCN1C(=O)[C@H](CCCNC(=N)N)NC(=O)[C@@H]1CCCN1C(=O)[C@H](CCCNC(=N)N)NC(=O)[C@@H]1CCCN1C(=O)[C@H](CC(C)C)NC(=O)[C@H](Cc1ccc(O)cc1)NC(=O)[C@@H]1CCCN1C(=O)[C@H](CCCNC(=N)N)NC(=O)[C@H](CCCNC(=N)N)NC(=O)[C@H](CCC(=O)O)NC(=O)[C@H](CCCNC(=N)N)NC(=O)[C@@H](N)CCCNC(=N)N)C(=O)O [MyfaCath3] (H-RRERRPYLPRPRPRPSFPRPGFPFPRPGFPFPRPRRSI-OH)
[3]; clinical isolate - animal
  MBC E. coli: 3.4 µM (≈ 16 µg/mL)
  MIC E. coli: 3.4 µM (≈ 16 µg/mL)
[4]; clinical isolate - animal
  MIC: >13.6 µM
[5]; ATCC 25922
  MBC E. coli ATCC: 1.7 µM (≈ 7.99 µg/mL)
  MIC E. coli ATCC: 1.7 µM (≈ 7.99 µg/mL)
[6]; clinical isolate - animal
  MIC: >13.6 µM
[7]; ATCC 27853
  MIC: >13.6 µM
[8]; ATCC 29213
  MIC: >13.6 µM
